Calls of active or inactive are those of the source. The calls are words filed in the database; no cut-off is given here. Where a SMILES comes first, the peptide text is derived from it. Bridges are numbered along the chain shown (N, C = ends).
Key:
[1] = Antagonist activity at rat nAChR alpha7 Y200F mutant expressed in xenopus oocytes assessed as inhibition of Ach- induced response at -70 mV holding potential preincubated for 5 mins followed by Ach stimulation by voltage-clamp based electrophysiological method; assay type: cell-based; conditions: Oocyte
[2] = target: Neuronal acetylcholine receptor; alpha3/beta4 (Rattus norvegicus, UniProt P04757+P12392); experiment: Antagonist activity at rat alpha3beta4 nAChR expressed in xenopus oocytes assessed as inhibition of Ach- induced response at -70 mV holding potential preincubated for 5 mins followed by Ach stimulation by voltage-clamp based electrophysiological method; assay type: cell-based, Oocyte
[3] = Antagonist activity at rat nAChR alpha7 R6K mutant expressed in xenopus oocytes assessed as inhibition of Ach- induced response at -70 mV holding potential preincubated for 5 mins followed by Ach stimulation by voltage-clamp based electrophysiological method; assay type: cell-based; conditions: Oocyte
[4] = target: Neuronal acetylcholine receptor; alpha3/beta2 (Rattus norvegicus, UniProt P04757+P12390); experiment: Antagonist activity at rat alpha3beta2 nAChR expressed in xenopus oocytes assessed as inhibition of Ach- induced response at -70 mV holding potential preincubated for 5 mins followed by Ach stimulation by voltage-clamp based electrophysiological method; assay type: cell-based, Oocyte
[5] = target: Neuronal acetylcholine receptor; alpha3/beta4 (Rattus norvegicus) (UniProt P04757+P12392); experiment: Antagonist activity at rat alpha3beta4 nAChR expressed in xenopus oocytes assessed as inhibition of Ach- induced response at 10 uM at -70 mV holding potential preincubated for 5 mins followed by Ach stimulation by voltage-clamp based electrophysiological method; assay type: cell-based; conditions: Oocyte
[6] = target: Neuronal acetylcholine receptor; alpha2/beta2 (Rattus norvegicus, UniProt P12389+P12390); experiment: Antagonist activity at rat alpha2beta2 nAChR expressed in xenopus oocytes assessed as inhibition of Ach- induced response at -70 mV holding potential preincubated for 5 mins followed by Ach stimulation by voltage-clamp based electrophysiological method; assay type: cell-based, Oocyte
[7] = Antagonist activity at rat nAChR alpha7 K186R mutant expressed in xenopus oocytes assessed as inhibition of Ach- induced response at -70 mV holding potential preincubated for 5 mins followed by Ach stimulation by voltage-clamp based electrophysiological method; assay type: cell-based; conditions: Oocyte
[8] = Antagonist activity at rat nAChR alpha7 S167G mutant expressed in xenopus oocytes assessed as inhibition of Ach- induced response at -70 mV holding potential preincubated for 5 mins followed by Ach stimulation by voltage-clamp based electrophysiological method; assay type: cell-based; conditions: Oocyte
[9] = target: Neuronal acetylcholine receptor; alpha4/beta4 (Rattus norvegicus) (UniProt P09483+P12392); experiment: Antagonist activity at rat alpha4beta4 nAChR expressed in xenopus oocytes assessed as inhibition of Ach- induced response at 10 uM at -70 mV holding potential preincubated for 5 mins followed by Ach stimulation by voltage-clamp based electrophysiological method; assay type: cell-based; conditions: Oocyte
[10] = Antagonist activity at rat nAChR alpha7 N184S mutant expressed in xenopus oocytes assessed as inhibition of Ach- induced response at -70 mV holding potential preincubated for 5 mins followed by Ach stimulation by voltage-clamp based electrophysiological method; assay type: cell-based; conditions: Oocyte
[11] = Antagonist activity at rat nAChR alpha7 N77T mutant expressed in xenopus oocytes assessed as inhibition of Ach- induced response at -70 mV holding potential preincubated for 5 mins followed by Ach stimulation by voltage-clamp based electrophysiological method; assay type: cell-based; conditions: Oocyte
[12] = target: Neuronal acetylcholine receptor; alpha4/beta4 (Rattus norvegicus, UniProt P09483+P12392); experiment: Antagonist activity at rat alpha4beta4 nAChR expressed in xenopus oocytes assessed as inhibition of Ach- induced response at -70 mV holding potential preincubated for 5 mins followed by Ach stimulation by voltage-clamp based electrophysiological method; assay type: cell-based, Oocyte
[13] = target: Neuronal acetylcholine receptor; alpha2/beta2 (Rattus norvegicus) (UniProt P12389+P12390); experiment: Antagonist activity at rat alpha2beta2 nAChR expressed in xenopus oocytes assessed as inhibition of Ach- induced response at 10 uM at -70 mV holding potential preincubated for 5 mins followed by Ach stimulation by voltage-clamp based electrophysiological method; assay type: cell-based; conditions: Oocyte
[14] = target: Nicotinic acetylcholine receptor alpha9/alpha10 (Rattus norvegicus, UniProt P43144+Q9JLB5); experiment: Antagonist activity at rat alpha9alpha10 nAChR expressed in xenopus oocytes assessed as inhibition of Ach- induced response at -70 mV holding potential preincubated for 5 mins followed by Ach stimulation by voltage-clamp based electrophysiological method; assay type: cell-based, Oocyte
[15] = target: Nicotinic acetylcholine receptor alpha9/alpha10 (Rattus norvegicus) (UniProt P43144+Q9JLB5); experiment: Antagonist activity at rat alpha9alpha10 nAChR expressed in xenopus oocytes assessed as inhibition of Ach- induced response at 10 uM at -70 mV holding potential preincubated for 5 mins followed by Ach stimulation by voltage-clamp based electrophysiological method; assay type: cell-based; conditions: Oocyte
[16] = Antagonist activity at human nAChR alpha7 H141Q/S184N/R186K triple mutant expressed in xenopus oocytes assessed as inhibition of Ach- induced response at -70 mV holding potential preincubated for 5 mins followed by Ach stimulation by voltage-clamp based electrophysiological method; assay type: cell-based; conditions: Oocyte
[17] = Antagonist activity at human nAChR alpha7 S184N mutant expressed in xenopus oocytes assessed as inhibition of Ach- induced response at -70 mV holding potential preincubated for 5 mins followed by Ach stimulation by voltage-clamp based electrophysiological method; assay type: cell-based; conditions: Oocyte
[18] = target: Neuronal acetylcholine receptor; alpha2/beta4 (Rattus norvegicus, UniProt P12389+P12392); experiment: Antagonist activity at rat alpha2beta4 nAChR expressed in xenopus oocytes assessed as inhibition of Ach- induced response at -70 mV holding potential preincubated for 5 mins followed by Ach stimulation by voltage-clamp based electrophysiological method; assay type: cell-based, Oocyte
[19] = Antagonist activity at rat nAChR alpha7 A112S mutant expressed in xenopus oocytes assessed as inhibition of Ach- induced response at -70 mV holding potential preincubated for 5 mins followed by Ach stimulation by voltage-clamp based electrophysiological method; assay type: cell-based; conditions: Oocyte
[20] = Antagonist activity at human nAChR alpha7 H141Q mutant expressed in xenopus oocytes assessed as inhibition of Ach- induced response at -70 mV holding potential preincubated for 5 mins followed by Ach stimulation by voltage-clamp based electrophysiological method; assay type: cell-based; conditions: Oocyte
[21] = Antagonist activity at human nAChR alpha7 S184N/R186K double mutant expressed in xenopus oocytes assessed as inhibition of Ach- induced response at -70 mV holding potential preincubated for 5 mins followed by Ach stimulation by voltage-clamp based electrophysiological method; assay type: cell-based; conditions: Oocyte
[22] = target: Neuronal acetylcholine receptor; alpha2/beta4 (Rattus norvegicus) (UniProt P12389+P12392); experiment: Antagonist activity at rat alpha2beta4 nAChR expressed in xenopus oocytes assessed as inhibition of Ach- induced response at 10 uM at -70 mV holding potential preincubated for 5 mins followed by Ach stimulation by voltage-clamp based electrophysiological method; assay type: cell-based; conditions: Oocyte
[23] = Antagonist activity at rat nAChR alpha7 M177V mutant expressed in xenopus oocytes assessed as inhibition of Ach- induced response at -70 mV holding potential preincubated for 5 mins followed by Ach stimulation by voltage-clamp based electrophysiological method; assay type: cell-based; conditions: Oocyte

Sequence of Neuronal acetylcholine receptor; alpha4/beta4 (P09483 whole entry): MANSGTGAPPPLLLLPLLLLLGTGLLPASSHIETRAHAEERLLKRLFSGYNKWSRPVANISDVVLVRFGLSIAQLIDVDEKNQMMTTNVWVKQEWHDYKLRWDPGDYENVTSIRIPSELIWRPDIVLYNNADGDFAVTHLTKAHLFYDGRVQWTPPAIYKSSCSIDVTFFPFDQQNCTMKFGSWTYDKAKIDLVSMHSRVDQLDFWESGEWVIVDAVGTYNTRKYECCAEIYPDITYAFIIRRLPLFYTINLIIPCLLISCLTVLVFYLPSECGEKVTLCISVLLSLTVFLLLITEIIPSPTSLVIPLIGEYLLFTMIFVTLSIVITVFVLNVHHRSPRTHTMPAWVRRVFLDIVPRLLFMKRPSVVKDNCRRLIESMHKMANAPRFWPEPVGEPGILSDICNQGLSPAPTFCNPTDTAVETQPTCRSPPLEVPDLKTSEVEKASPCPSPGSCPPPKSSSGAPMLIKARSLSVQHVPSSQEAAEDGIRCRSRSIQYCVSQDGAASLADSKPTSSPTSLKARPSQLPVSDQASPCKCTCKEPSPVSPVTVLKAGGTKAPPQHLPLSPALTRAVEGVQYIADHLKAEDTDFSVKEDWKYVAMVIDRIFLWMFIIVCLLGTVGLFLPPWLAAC
Sequence of Neuronal acetylcholine receptor; alpha4/beta4 (P12392 whole entry): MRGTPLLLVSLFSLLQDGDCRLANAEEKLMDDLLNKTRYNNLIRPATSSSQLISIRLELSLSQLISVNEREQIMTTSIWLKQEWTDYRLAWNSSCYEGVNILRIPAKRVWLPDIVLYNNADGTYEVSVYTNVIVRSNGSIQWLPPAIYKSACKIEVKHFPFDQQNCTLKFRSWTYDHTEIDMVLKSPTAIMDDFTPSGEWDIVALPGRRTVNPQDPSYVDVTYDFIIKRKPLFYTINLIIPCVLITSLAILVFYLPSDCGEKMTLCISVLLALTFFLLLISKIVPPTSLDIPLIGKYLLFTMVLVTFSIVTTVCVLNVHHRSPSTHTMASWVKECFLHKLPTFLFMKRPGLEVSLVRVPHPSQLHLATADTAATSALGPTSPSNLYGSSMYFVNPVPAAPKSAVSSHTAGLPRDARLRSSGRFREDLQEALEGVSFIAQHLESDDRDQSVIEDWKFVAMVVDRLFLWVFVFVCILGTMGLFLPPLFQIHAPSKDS
Sequence of Neuronal acetylcholine receptor; alpha3/beta4 (P04757 whole entry): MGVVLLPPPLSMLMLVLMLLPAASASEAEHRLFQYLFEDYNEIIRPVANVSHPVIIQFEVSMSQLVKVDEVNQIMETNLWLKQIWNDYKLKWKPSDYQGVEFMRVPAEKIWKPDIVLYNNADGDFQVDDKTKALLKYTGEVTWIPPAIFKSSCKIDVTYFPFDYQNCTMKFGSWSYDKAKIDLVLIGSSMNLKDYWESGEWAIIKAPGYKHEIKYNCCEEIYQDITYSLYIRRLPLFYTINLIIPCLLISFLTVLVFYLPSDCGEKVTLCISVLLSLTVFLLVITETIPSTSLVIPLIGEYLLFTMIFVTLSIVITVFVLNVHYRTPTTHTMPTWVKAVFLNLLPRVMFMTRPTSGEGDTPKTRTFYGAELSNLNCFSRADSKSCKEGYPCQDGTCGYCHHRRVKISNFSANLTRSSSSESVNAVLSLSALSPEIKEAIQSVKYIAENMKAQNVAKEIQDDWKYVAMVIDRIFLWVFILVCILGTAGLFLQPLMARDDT
Sequence of Neuronal acetylcholine receptor; alpha3/beta4 (P12392 whole entry): as the sequence (P12392 whole entry) above
Sequence of Neuronal acetylcholine receptor; alpha3/beta2 (P04757 whole entry): as the sequence (P04757 whole entry) above
Sequence of Neuronal acetylcholine receptor; alpha3/beta2 (P12390 whole entry): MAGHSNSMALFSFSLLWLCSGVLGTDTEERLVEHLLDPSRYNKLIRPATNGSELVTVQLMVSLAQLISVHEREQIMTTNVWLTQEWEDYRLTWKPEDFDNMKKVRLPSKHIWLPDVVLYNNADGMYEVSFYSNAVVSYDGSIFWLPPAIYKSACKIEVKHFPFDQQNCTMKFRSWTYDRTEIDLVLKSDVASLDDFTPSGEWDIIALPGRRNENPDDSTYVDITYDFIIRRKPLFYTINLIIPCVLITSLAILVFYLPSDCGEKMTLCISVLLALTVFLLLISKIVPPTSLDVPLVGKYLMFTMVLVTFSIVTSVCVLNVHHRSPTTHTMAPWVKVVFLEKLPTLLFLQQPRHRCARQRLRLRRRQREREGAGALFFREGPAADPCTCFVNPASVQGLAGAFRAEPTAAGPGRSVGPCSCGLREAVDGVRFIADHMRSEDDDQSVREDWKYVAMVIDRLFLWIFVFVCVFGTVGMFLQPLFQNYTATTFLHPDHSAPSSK
Sequence of Neuronal acetylcholine receptor; alpha2/beta4 (P12389 whole entry): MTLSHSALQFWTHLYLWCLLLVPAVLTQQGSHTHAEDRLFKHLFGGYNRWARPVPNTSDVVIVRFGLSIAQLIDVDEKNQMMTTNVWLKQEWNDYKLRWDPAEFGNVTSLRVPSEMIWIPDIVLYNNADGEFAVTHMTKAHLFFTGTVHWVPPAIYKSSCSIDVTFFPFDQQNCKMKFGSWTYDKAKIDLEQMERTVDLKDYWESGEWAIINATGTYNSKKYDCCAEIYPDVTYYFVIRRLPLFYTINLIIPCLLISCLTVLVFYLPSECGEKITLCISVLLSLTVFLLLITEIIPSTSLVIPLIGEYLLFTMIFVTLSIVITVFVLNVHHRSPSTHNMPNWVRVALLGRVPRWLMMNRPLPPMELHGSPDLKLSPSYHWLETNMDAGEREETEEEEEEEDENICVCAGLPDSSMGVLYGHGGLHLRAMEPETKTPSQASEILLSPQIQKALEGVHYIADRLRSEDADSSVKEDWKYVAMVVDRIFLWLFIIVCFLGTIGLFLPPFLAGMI
Sequence of Neuronal acetylcholine receptor; alpha2/beta4 (P12392 whole entry): as the sequence (P12392 whole entry) above
Sequence of Neuronal acetylcholine receptor; alpha2/beta2 (P12389 whole entry): as the sequence (P12389 whole entry) above
Sequence of Neuronal acetylcholine receptor; alpha2/beta2 (P12390 whole entry): as the sequence (P12390 whole entry) above
Sequence of Nicotinic acetylcholine receptor alpha9/alpha10 (P43144 whole entry): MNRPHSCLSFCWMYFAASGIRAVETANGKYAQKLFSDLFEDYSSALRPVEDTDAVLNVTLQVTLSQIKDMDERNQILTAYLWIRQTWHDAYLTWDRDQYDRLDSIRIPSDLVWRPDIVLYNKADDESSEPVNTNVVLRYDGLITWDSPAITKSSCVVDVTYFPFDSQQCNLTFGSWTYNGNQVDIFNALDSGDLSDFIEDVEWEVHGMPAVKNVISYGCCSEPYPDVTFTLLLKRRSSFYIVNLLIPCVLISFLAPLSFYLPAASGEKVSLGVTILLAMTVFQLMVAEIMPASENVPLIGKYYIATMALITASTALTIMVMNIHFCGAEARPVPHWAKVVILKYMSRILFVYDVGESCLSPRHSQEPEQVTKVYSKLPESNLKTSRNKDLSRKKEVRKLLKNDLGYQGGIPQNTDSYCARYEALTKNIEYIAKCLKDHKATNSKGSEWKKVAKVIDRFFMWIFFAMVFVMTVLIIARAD
Sequence of Nicotinic acetylcholine receptor alpha9/alpha10 (Q9JLB5 whole entry): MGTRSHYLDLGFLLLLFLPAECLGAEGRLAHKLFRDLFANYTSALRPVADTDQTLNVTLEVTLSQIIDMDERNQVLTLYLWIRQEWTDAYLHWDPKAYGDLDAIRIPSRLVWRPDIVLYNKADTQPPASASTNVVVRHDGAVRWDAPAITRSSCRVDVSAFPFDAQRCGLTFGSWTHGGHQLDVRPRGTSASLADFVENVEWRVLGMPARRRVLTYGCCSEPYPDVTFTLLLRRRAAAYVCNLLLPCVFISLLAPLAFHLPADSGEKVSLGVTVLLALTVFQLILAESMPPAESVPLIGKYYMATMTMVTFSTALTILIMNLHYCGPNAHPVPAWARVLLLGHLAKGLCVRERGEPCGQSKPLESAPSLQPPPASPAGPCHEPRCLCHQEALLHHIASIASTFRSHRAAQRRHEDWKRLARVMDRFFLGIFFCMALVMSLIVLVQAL

With `C[C@@H]1NC(=O)[C@@H]2CSSC[C@H](NC(=O)CN)C(=O)N[C@@H](CSSC[C@@H](C(N)=O)NC(=O)[C@H](Cc3cnc[nH]3)NC(=O)[C@H](CCC(=O)O)NC(=O)[C@H](Cc3cnc[nH]3)NC1=O)C(=O)N[C@@H](CO)C(=O)N[C@@H](CC(N)=O)C(=O)N1CCC[C@H]1C(=O)N1CCC[C@H]1C(=O)N2` (H-GCCSNPPCAHEHC-NH2; disulfide 2-8, 3-13) the IC50 [1] was 190 nM, the IC50 [2] was > 10000 nM and the IC50 [3] was 170 nM. For the same compound, the IC50 [4] was 350 nM, the inhibition [5] was “inactive” and the IC50 [6] was > 10000 nM. The IC50 [7] was 430 nM, the IC50 [8] was 200 nM and the inhibition [9] was “inactive”. The IC50 [10] was 710 nM, the IC50 [11] was 160 nM and the IC50 [12] was > 10000 nM. The inhibition [13] was “inactive”, the IC50 [14] was > 10000 nM and the inhibition [15] was “inactive”. The IC50 [16] was 220 nM, the IC50 [17] was 850 nM and the IC50 [18] was > 10000 nM. It also gave an IC50 [19] of 160 nM, an IC50 [20] of 1070 nM and an IC50 [21] of 530 nM. For the same compound, the inhibition [22] was “inactive” and the IC50 [23] was 160 nM.

From ChEMBL document CHEMBL5055626 (J Med Chem, 2021)
